Columns and labels:
[1] = target: PKR(R510Q) (Homo sapiens, UniProt P30613, R510Q); test: Luminescence Biochemical Assay (Kinase Glo Plus), PKR R510Q mutant; conditions: without FBP; for activation at 1.54 µM: 1.54 μM compound, read-out: AC50 LUM KGP woFBP % Fold@1.54 μM mean; for AC50: read-out: AC50 LUM KGP woFBP AC50 μM gmean; for Emax: read-out: AC50 LUM KGP woFBP MAX % FOLD mean
[2] = target: PKR(wt) (Homo sapiens, UniProt P30613); test: Luminescence Biochemical Assay (Kinase Glo Plus), wild type PKR; conditions: without FBP; for activation at 1.54 µM: 1.54 μM compound, read-out: AC50 LUM KGP woFBP % Fold@1.54 μM mean; for AC50: read-out: AC50 LUM KGP woFBP AC50 μM gmean; for Emax: read-out: AC50 LUM KGP woFBP MAX % FOLD mean
[3] = target: PKR(G332S) (Homo sapiens, UniProt P30613, G332S); test: Luminescence Biochemical Assay (Kinase Glo Plus), PKR G332S mutant; conditions: with FBP; for activation at 1.54 µM: 1.54 μM compound, read-out: AC50 LUM KGP FBP % Fold@1.54 μM mean; for AC50: read-out: AC50 LUM KGP FBP AC50 μM gmean (column A); for Emax: read-out: AC50 LUM KGP FBP MAX % FOLD mean
PKR(G332S), sequence (P30613 whole entry G332S): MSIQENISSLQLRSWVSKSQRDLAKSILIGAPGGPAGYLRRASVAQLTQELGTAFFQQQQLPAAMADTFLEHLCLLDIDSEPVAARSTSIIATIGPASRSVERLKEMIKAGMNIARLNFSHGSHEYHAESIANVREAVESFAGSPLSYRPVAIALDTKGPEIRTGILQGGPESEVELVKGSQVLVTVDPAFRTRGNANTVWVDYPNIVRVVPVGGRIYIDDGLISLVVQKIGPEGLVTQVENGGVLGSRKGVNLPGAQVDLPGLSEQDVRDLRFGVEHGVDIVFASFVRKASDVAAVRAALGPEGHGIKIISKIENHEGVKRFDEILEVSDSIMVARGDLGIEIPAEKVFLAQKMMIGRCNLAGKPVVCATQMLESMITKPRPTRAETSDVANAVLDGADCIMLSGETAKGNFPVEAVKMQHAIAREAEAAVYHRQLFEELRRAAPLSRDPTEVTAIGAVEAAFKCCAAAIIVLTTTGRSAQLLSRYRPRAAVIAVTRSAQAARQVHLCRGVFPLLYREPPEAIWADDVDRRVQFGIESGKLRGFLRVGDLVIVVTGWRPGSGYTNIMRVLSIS

PKR(wt), sequence (P30613 whole entry): as the sequence (P30613 whole entry G332S) above, with S332G counted along it
PKR(R510Q), sequence (P30613 whole entry R510Q): as the sequence (P30613 whole entry G332S) above, with S332G, R510Q counted along it

Structure (SMILES)	activation at 1.54 µM [1] [%]	AC50 [1] [µM]	Emax [1] [%]	activation at 1.54 µM [2] [%]	AC50 [2] [µM]	Emax [2] [%]	activation at 1.54 µM [3] [%]	AC50 [3] [µM]	Emax [3] [%]
COc1ccccc1CNC(=O)N1CC2=C(C1)CN(S(=O)(=O)c1ccc(OC(F)F)cc1)C2 [Example 21-12, 5-[4-(Difluoromethoxy)benzenesulfonyl]-N-[(2-methoxyphenyl)methyl]-1H,2H,3H,4H,5H,6H-pyrrolo[3,4-c]pyrrole-2-carboxamide]	250 to 50000	0.1 to 1	250 to 500	250 to 50000	0.1 to 1	250 to 500	75 to 250	≤ 0.1	75 to 250
O=C(NCc1ccc(F)cc1)N1CC2=C(C1)CN(S(=O)(=O)c1ccc3ncsc3c1)C2 [Example 21-19, 5-(1,3-Benzothiazole-6-sulfonyl)-N-[(4-fluorophenyl)methyl]-1H,2H,3H,4H,5H,6H-pyrrolo[3,4-c]pyrrole-2-carboxamide]	75 to 250	0.1 to 1	250 to 500	75 to 250	0.1 to 1	250 to 500	75 to 250	0.1 to 1	75 to 250
O=C(C(O)c1ccc(F)c(F)c1)N1CC2=C(C1)CN(S(=O)(=O)c1ccc(OC(F)F)cc1)C2 (centres unmarked) [Example 18-23, 1-{5-[4-(Difluoromethoxy)benzenesulfonyl]-1H,2H,3H,4H,5H,6H-pyrrolo[3,4-c]pyrrol-2-yl}-2-(3,4-difluorophenyl)-2-hydroxyethan-1-one]	250 to 50000	1 to 40	250 to 500	75 to 250	0.1 to 1	250 to 500	75 to 250	0.1 to 1	75 to 250
O=C([C@H](O)c1ccccc1)N1CC2=C(C1)CN(S(=O)(=O)c1ccc(OC(F)F)cc1)C2 [Example 18-13, (2R)-1-{5-[4-(difluoromethoxy)benzenesulfonyl]-1H,2H,3H,4H,5H,6H-pyrrolo[3,4-c]pyrrol-2-yl}-2-hydroxy-2-phenylethan-1-one]	250 to 50000	≤ 0.1	250 to 500	250 to 50000	≤ 0.1	250 to 500	75 to 250	≤ 0.1	75 to 250
N#Cc1ccccc1S(=O)(=O)N1CC2=C(CN(C(=O)[C@H](O)c3ccccc3)C2)C1 [Example 18-47, 2-({5-[(2R)-2-hydroxy-2-phenylacetyl]-1H,2H,3H,4H,5H,6H-pyrrolo[3,4-c]pyrrol-2-yl}sulfonyl)benzonitrile]	75 to 250	0.1 to 1	75 to 250	75 to 250	0.1 to 1	75 to 250	75 to 250	1 to 40	75 to 250
O=C(Cn1cnnn1)N1CC2=C(C1)CN(S(=O)(=O)c1cccnc1)C2 [Example 18-70, 1-[5-(Pyridine-3-sulfonyl)-1H,2H,3H,4H,5H,6H-pyrrolo[3,4-c]pyrrol-2-yl]-2-(1H-1,2,3,4-tetrazol-1-yl)ethan-1-one]	75 to 250	1 to 40	75 to 250	75 to 250	1 to 40	75 to 250	75 to 250	1 to 40	75 to 250
COc1ccc(CNC(=O)N2CC3=C(C2)CN(S(=O)(=O)c2ccc4ncsc4c2)C3)cc1 [Example 21-16, 5-(1,3-Benzothiazole-6-sulfonyl)-N-[(4-methoxyphenyl)methyl]-1H,2H,3H,4H,5H,6H-pyrrolo[3,4-c]pyrrole-2-carboxamide]	250 to 50000	0.1 to 1	250 to 500	250 to 50000	≤ 0.1	250 to 500	75 to 250	≤ 0.1	75 to 250
Cc1cccc(Cl)c1S(=O)(=O)N1CC2=C(CN(C(=O)[C@@H](O)c3ccccc3)C2)C1 [Example 18-54, (2S)-1-[5-(2-chloro-6-methylbenzenesulfonyl)-1H,2H,3H,4H,5H,6H-pyrrolo[3,4-c]pyrrol-2-yl]-2-hydroxy-2-phenylethan-1-one]	75 to 250	1 to 40	75 to 250	75 to 250	1 to 40	75 to 250	75 to 250	1 to 40	75 to 250
CC(=O)Nc1cc(S(=O)(=O)N2CC3=C(CN(C(=O)[C@H](O)c4ccccc4)C3)C2)ccc1F [Example 14-1, (R)—N-(2-fluoro-5-((5-(2-hydroxy-2-phenylacetyl)-3,4,5,6-tetrahydropyrrolo[3,4-c]pyrrol-2(1H)-yl)sulfonyl)phenyl)acetamide]	75 to 250	1 to 40	75 to 250	75 to 250	1 to 40	75 to 250	75 to 250	1 to 40	75 to 250
O=C(NCc1ccc(F)cc1)N1CC2=C(C1)CN(S(=O)(=O)c1ccccn1)C2 [Example 21-41, N-[(4-fluorophenyl)methyl]-5-(pyridine-2-sulfonyl)-1H,2H,3H,4H,5H,6H-pyrrolo[3,4-c]pyrrole-2-carboxamide]	75 to 250	0.1 to 1	75 to 250	75 to 250	0.1 to 1	250 to 500	75 to 250	1 to 40	75 to 250
O=C(C(O)c1cccnc1)N1CC2=C(C1)CN(S(=O)(=O)c1ccc(OC(F)F)cc1)C2 (centres unmarked) [Example 9-1, 1-(5-[[4-(Difluoromethoxy)benzene]sulfonyl]-1H,2H,3H,4H,5H,6H-pyrrolo[3,4-c]pyrrol-2-yl)-2-hydroxy-2-(pyridin-3-yl)ethan-1-one]	250 to 50000	≤ 0.1	250 to 500	250 to 50000	≤ 0.1	250 to 500	75 to 250	≤ 0.1	75 to 250
O=C([C@H](O)c1ccccc1)N1CC2=C(C1)CN(S(=O)(=O)c1ccccn1)C2 [Example 9-2, (2R)-2-hydroxy-2-phenyl-1-[5-(pyridine-2-sulfonyl)-1H,2H,3H,4H,5H,6H-pyrrolo[3,4-c]pyrrol-2-yl]ethan-1-one]	75 to 250	0.1 to 1	250 to 500	75 to 250	–	75 to 250	75 to 250	0.1 to 1	75 to 250
O=C(N1CC2=C(C1)CN(S(=O)(=O)c1ccccn1)C2)C1(O)CC1 [Example 18-65, 1-[5-(Pyridine-2-sulfonyl)-1H,2H,3H,4H,5H,6H-pyrrolo[3,4-c]pyrrole-2-carbonyl]cyclopropan-1-ol]	75 to 250	1 to 40	75 to 250	75 to 250	1 to 40	250 to 500	75 to 250	1 to 40	75 to 250
O=C(N1CC2=C(C1)CN(S(=O)(=O)c1ccc(OC(F)F)cc1)C2)C(F)(F)c1ccccc1 [Example 18-25, 1-(5-((4-(Difluoromethoxy)phenyl)sulfonyl)-3,4,5,6-tetrahydropyrrolo[3,4-c]pyrrol-2(1H)-yl)-2,2-difluoro-2-phenylethan-1-one]	250 to 50000	≤ 0.1	250 to 500	250 to 50000	≤ 0.1	250 to 500	75 to 250	≤ 0.1	75 to 250
Cc1cc(CNC(=O)N2CC3=C(C2)CN(S(=O)(=O)c2ccccn2)C3)no1 [Example 21-43, N-[(5-methyl-1,2-oxazol-3-yl)methyl]-5-(pyridine-2-sulfonyl)-1H,2H,3H,4H,5H,6H-pyrrolo[3,4-c]pyrrole-2-carboxamide]	75 to 250	1 to 40	250 to 500	75 to 250	1 to 40	250 to 500	75 to 250	0.1 to 1	75 to 250
COc1cccc(CNC(=O)N2CC3=C(C2)CN(S(=O)(=O)c2ccc4ncsc4c2)C3)c1 [Example 21-17, 5-(1,3-Benzothiazole-6-sulfonyl)-N-[(3-methoxyphenyl)methyl]-1H,2H,3H,4H,5H,6H-pyrrolo[3,4-c]pyrrole-2-carboxamide]	75 to 250	1 to 40	75 to 250	75 to 250	≤ 0.1	75 to 250	75 to 250	≤ 0.1	75 to 250
O=C([C@@H](O)c1ccc2c(c1)CNCC2)N1CC2=C(C1)CN(S(=O)(=O)c1ccc(OC(F)F)cc1)C2 (single isomer, unassigned) [Example 11-1]	250 to 50000	0.1 to 1	250 to 500	75 to 250	1 to 40	75 to 250	75 to 250	1 to 40	75 to 250
O=C(Cc1ncccn1)N1CC2=C(C1)CN(S(=O)(=O)c1ccc(OC(F)F)cc1)C2 [Example 18-28, 1-{5-[4-(Difluoromethoxy)benzenesulfonyl]-1H,2H,3H,4H,5H,6H-pyrrolo[3,4-c]pyrrol-2-yl}-2-(pyrimidin-2-yl)ethan-1-one]	250 to 50000	1 to 40	250 to 500	250 to 50000	1 to 40	250 to 500	75 to 250	0.1 to 1	75 to 250
